In patent publication US20080253996A1, “Use of Sdf-1 for the Treatment and/or Prevention of Neurological Diseases” (LABORATORIES SERONO SA, priority 2005, published 2008):

Key:
sciatic nerve crush mice = test: Neuropathy induced by sciatic nerve crush, electrophysiological recording (CMAP); type: in vivo, mouse; details: for increase in the CMAP amplitude as compared to untreated mice: SDF-1α 30 μg/kg or μ/kg, IL-6 30 μ/kg s.c., significant at 15 dpl and 22dpl
Description: […] 8 week-old females C57bl/6 RJ mice (Elevage Janvier, Le Genest-St-Isle, France) were used. They were divided into 6 groups (n=6): • (a) nerve crush/Vehicle (Saline/0.02% BSA); • (b) nerve crush/SDF-1α (3 μg/kg); • (c) nerve crush/SDF-1α (10 μg/kg); • (d) nerve crush/SDF-1α (30 μg/kg); • (e) nerve crush/SDF-1α (100 μg/kg); • (f) nerve crush/IL-6 (30 μg/kg).
The animals were anaesthetized by inhalation of 3% Isoflurane (Baxter). The right sciatic nerve was surgically exposed at mid thigh level and crushed at 5 mm proximal to the trifurcation of the sciatic nerve. The nerve was crushed twice for 30s with a haemostatic forceps (width 1.5 mm; Koenig; Strasbourg; France) with a 90-degree rotation between each crush.
Electromyographical (EMG) testing was performed once before the surgery day and each week during 3 weeks following the operation.
The day of nerve crush surgery was considered as dpl 0 (dpl=day post lesion). No test was performed during the 4 days following the crush.
From the day of nerve injury to the end of the study, SDF-1α, IL-6 or Vehicle were administered daily by subcutaneous injections (s.c.) route, 5 days per week.
Electrophysiological recordings were performed using a Neuromatic 2000M electromyograph (EMG) (Dantec, Les Ulis, France). Mice were anaesthetized by inhalation of 3% Isofluran® (Baxter). The normal body temperature was maintained using a heated operating table (Minerve, Esternay, France).
Compound muscle action potential (CMAP) was measured in the gastrocnemius muscle after a single 0.2 ms stimulation of the sciatic nerve at a supramaximal intensity (12.8 mA). The amplitude (mV) and the latency (ms) of the action potential were measured on the operated leg. The measures was also registered on the contralateral (uncrushed) leg of Vehicle treated animals (Baseline). The amplitude is indicative of the number of active motor units, while the distal latency indirectly reflects motor nerve conduction and neuromuscular transmission velocities, which depends in part on the degree of myelination.
Global analysis of the data was performed using one-way ANOVA. Dunnett's test was used further, and data were compared to the “vehicle” control. The level of significance was set at a: p<0.001; b or **: p<0.01; c or *: p<0.05; d: p<0.1. The results were expressed as mean ±standard error of the mean (s.e.m.).
The sciatic nerve crush model described in Example 4 above was carried out to test SDF-1α variant as defined in SEQ ID NO: 4 and the mice were divided into the following 2 groups (n=6):
The SDF-1α variant used in this example and encoded by SEQ ID NO: 4 was expressed with an additional N terminal Methionine. The CMAP duration (time needed for a depolarization and a repolarization session) was also recorded.
The sciatic nerve crush model described in Example 4 above was carried out to test Met-SDF-1α (as defined in SEQ ID NO: 7) and the mice were divided into the following 2 groups (n=6):
(b) nerve crush/Met-SDF-1α variant at 100, 30, and 10 μg/kg s.c.

STZ-rats = test: Hot plate 52° C. test in STZ diabetic rats; type: in vivo, rat; details: D40 post-STZ, SDF-1α 10, 30, 100 μg/kg, IL-6 10 μg/kg s.c.
Description: Eight week-old male Sprague Dawley rats (Janvier, Le Genest Saint Isle, France) were randomly distributed in 6 experimental groups (n=10) as shown below.
Diabetes was induced by intravenous injection of a buffered solution of streptozotocin (Sigma, L'Isle d'Abeau Chesnes, France) at a dose of 55 mg/kg. STZ was prepared in 0.1 mol/l citrate buffer pH 4.5. The control group received an equivalent volume of citrate buffer. The day of STZ injection was considered as D0.
Treatment with SDF-1α with IL-6 or their matched vehicle was performed on daily basis from D11 to D40.
The animal was placed into a glass cylinder on a hot plate adjusted to 52° C. The latency of the first reaction was recorded (licking, brisk movement of the paws, little leaps or a jump to escape the heat) with a cutoff time of 30 s.

Question: “IL-6: reference (positive) control compound in nerve crush and STZ models [reference compound]” was tested. Which “increase in the CMAP amplitude as compared to untreated mice” value (sciatic nerve crush mice) did it give?
Answer: Its value is “about 1.5 times”.

Question: What about the “threshold latency in the hot plate test” value (STZ-rats) of the same substance?
Answer: The value was “significantly lowered”.

Question: How did the “potency on CMAP latency compared with IL-6 (30 μg/kg)” value (sciatic nerve crush mice; 30 μg/kg s.c.) turn out when “SDF-1α: Human recombinant chemokine SDF-1α (SEQ ID NO: 1), produced in house, expressed in E. Coli cells” was run?
Answer: Its value is “more potent than IL-6”.

Question: What about the “increase in the CMAP amplitude as compared to untreated mice” value (sciatic nerve crush mice) of the same substance?
Answer: The value was “about 1.5 times”.

Question: What about the “CMAP latency vs vehicle treated mice” value (sciatic nerve crush mice; day 7, SDF-1α 30 μg/kg and 100 μg/kg, IL-6 30 μg/kg s.c.) of the same substance?
Answer: The value was “significantly reduced”.

Question: What about the “CMAP latency vs vehicle treated mice” value (sciatic nerve crush mice; dpl 15 and 22, 30 μg/kg and 100 μg/kg s.c.) of the same substance?
Answer: Its value is “significant effect”.

Question: What about the “threshold latency in the hot plate test” value (STZ-rats) of the same substance?
Answer: Its value is “significantly lowered”.
